Tests used:
R6/2 mice [1] = test: Number of glia by Nissl staining, R6/2 mice; type: in vivo; conditions: chronic CGS treatment
Protocol: (§1) Animals were deeply anesthetized with sodium pentobarbital (100 ug/g), and intracardially perfused with 4% paraformaldehyde in 0.1 M phosphate buffer (PB, pH 7.4). Brains were carefully removed, post-fixed with 4% paraformaldehyde/0. 1 M PB for 2-5 h, and then immersed in 30% glycerol in 0.1 M PB. Tissues were cut at 20 um on a freezing microtome (CM3050, Leica Microsystems Nussloch GmbH, Nussloch, Germany).
(§2) Serial-cut coronal tissue sections from the rostral segment of the neostriatum to the level of the anterior commissure (interaural 5.34 mm/bregma 1.54 mm to interaural 3.7 mm/bregma -0.1 mm) were used to define atrophy of the striatum and enlargement of the lateral ventricles. Total areas of the striatum or the lateral ventricles were measured using the software, NIH Image 1.62. Nissl- and GFAP-stained sections were quantified by counting the corresponding types of cells in defined areas of photomicrographs taken using a microscope in phase contrast.
Alternatively, elevated choline content may reflect a change in cell types. […] The number of glia was determined using the Nissl staining technique. […] The number of astrocytes, the most numerous of glial cells, was also assessed by staining the brain sections using an antibody against an astrocytic marker (glial fibrillary acidic protein, GFAP). […]

wild-type mice [2] = test: Number of activated astrocytes, wild-type mice; type: in vivo; conditions: chronic CGS treatment
Protocol: Single antigen immunohistochemistry was carried out by the avidin-biotin-peroxidase complex method as previously described (Liu et al. (1998) FEBS Lett. 436:92-98). In brief, free-floating sections were incubated in the polyclonal anti-GFAP antiserum (1 :1000 dilution, Sigma, St. Louis, Mo., USA) at 4° C. for 36-48 h followed by a biotinconjugated goat anti-rabbit IgG (1:500, Vector Laboratories, Burlingame, Calif., USA) for 2 h, and then with an avidin-biotin-peroxidase complex for 2 h with three rinses of 0.1 M PB in between. Sections were incubated in 0.1 M PB containing 0.02% DAB and 0.08% nickel ammonium sulfate. Immunostaining was developed by adding H2O2 to a final concentration of 0.0024%. […] The pattern of double immunostaining was analyzed with the aid of a laser confocal microscope (Bio-Rad, MRC-1000, Hercules, Calif., USA).
as §2, with “contrast. […]” for “contrast.”

R6/2 mice [3] = test: Motor coordination assessed by rotarod performance of R6/2 mice; type: in vivo; conditions: CGS treatment
wild-type mice [4] = test: Choline/creatine levels after chronic CGS, wild-type mice; type: in vivo; conditions: chronic IP-administration of CGS
Protocol: Animals were anesthetized using chloral hydrate (4.088 mg/10 g, i.p. injection). Measurements were performed on a Biospec 4.7 T spectrometer with an active shielding gradient at 6.9 G/cm in 500 us. Mice were placed in a prone position with a custom-designed head-holder. A 20-cm birdcage coil was used for RF excitation, and a 2-cm-diameter surface coil placed directly over the head was used for signal receiving. The volume of interest (VOI) for ^1H-MRS measurements over the striatum was selected on the basis of coronal diffusion-weighted image using a pulse gradient spin-echo diffusion method with a repetition time (TR) of 1500 ms, an echo time (TE) of 62 ms, a field of view of 3 cm×3 cm, a slice thickness of 1 mm, a b value of 1300 s/mm^2, number averages of 2, a 256 -128 matrix size zero filled to 256 -156. The diffusion-sensitive gradients were applied in the read (×) direction before and after the refocusing pulse. Point-resolved spectroscopy (PRESS) sequence, preceded by three consecutive chemical shift selective saturation (CHESS) pulses for water suppression, was used for localized spectroscopy with a 3.5 ×3.5 ×3.5 mm^3voxel located in the striatum region, a spectral width (sw) of 4000 Hz, a TR of 3.5 s, a TE of 136 ms, signal averages of 256, and total scanning time of 8 min 32 sec. The peak areas of NAA, choline (Cho), and creatine (Cr), were recognized. […]

R6/2 mice [5] = test: Number of activated (GFAP-positive) astrocytes by immunohistochemistry, R6/2 mice; type: in vivo
Protocol: as §1
Single antigen immunohistochemistry was carried out by the avidin-biotin-peroxidase complex method as previously described (Liu et al. (1998) FEBS Lett. 436:92-98). […] The pattern of double immunostaining was analyzed with the aid of a laser confocal microscope (Bio-Rad, MRC-1000, Hercules, Calif., USA).
as §2, with “contrast. […]” for “contrast.”

rats = conditions: low dosage, Popoli et al. (2002); cited from earlier work
R6/2 mice [6] = test: Locomotor activity of R6/2 mice; type: in vivo; conditions: ZM241385 7.5 ug/g given with CGS

## CCNC(=O)[C@H]1O[C@@H](n2cnc3c(N)nc(NCCc4ccc(CCC(=O)O)cc4)nc32)[C@H](O)[C@@H]1O [CGS]
R6/2 mice [1]
  number of glial cells: did not affect
wild-type mice [2]
  number of activated astrocytes: not affected
R6/2 mice [3]
  motor coordination assessed by rotarod performance: not affected
wild-type mice [4]
  changes in choline/creatine levels: no detectable changes
R6/2 mice [5]; R6/2 mice, chronic CGS treatment, in the striatum and in the cortex
  enhancement of the number of activated astrocytes: 8 fold

## Nc1nc2c(cnn2CCc2ccccc2)c2nc(-c3ccco3)nn12 [SCH58261]
rats
  QA-induced excitotoxicity: reduced QA-induced excitotoxicity

## Nc1nc(NCCc2ccc(O)cc2)nc2nc(-c3ccco3)nn12 [ZM241385]
R6/2 mice [6]
  ameliorating effect of CGS on locomotor activity, blockade by antagonist: could be blocked
R6/2 mice [5]; R6/2 mice treated with ZM and CGS simultaneously, n=4
  number of activated astrocytes in the striatum: 43±8 /mm^2

From patent US20040229837A1, “Treatment of neurodegenerative diseases” (priority 2003, published 2004)
